Assay results taken from patent US7488740B2, “Substituted quinolin-4-ylamine analogues” (Neurogen Corporation, priority 2003, dated 2009).

The molecules below were run against T1, human capsaicin receptor (Homo sapiens, UniProt Q8NER1) (assay: Calcium mobilization assay (Example 6)). Conditions: concentration required to provide a 50% decrease in the fluorescence response of cells exposed to one IC50 of capsaicin.
T1 construct: A cDNA encoding full length human capsaicin receptor recited in U.S. Pat. No. 6,482,611 was subcloned in the plasmid pBK-CMV; expressed in transfected cells
T1 sequence (Q8NER1 whole entry): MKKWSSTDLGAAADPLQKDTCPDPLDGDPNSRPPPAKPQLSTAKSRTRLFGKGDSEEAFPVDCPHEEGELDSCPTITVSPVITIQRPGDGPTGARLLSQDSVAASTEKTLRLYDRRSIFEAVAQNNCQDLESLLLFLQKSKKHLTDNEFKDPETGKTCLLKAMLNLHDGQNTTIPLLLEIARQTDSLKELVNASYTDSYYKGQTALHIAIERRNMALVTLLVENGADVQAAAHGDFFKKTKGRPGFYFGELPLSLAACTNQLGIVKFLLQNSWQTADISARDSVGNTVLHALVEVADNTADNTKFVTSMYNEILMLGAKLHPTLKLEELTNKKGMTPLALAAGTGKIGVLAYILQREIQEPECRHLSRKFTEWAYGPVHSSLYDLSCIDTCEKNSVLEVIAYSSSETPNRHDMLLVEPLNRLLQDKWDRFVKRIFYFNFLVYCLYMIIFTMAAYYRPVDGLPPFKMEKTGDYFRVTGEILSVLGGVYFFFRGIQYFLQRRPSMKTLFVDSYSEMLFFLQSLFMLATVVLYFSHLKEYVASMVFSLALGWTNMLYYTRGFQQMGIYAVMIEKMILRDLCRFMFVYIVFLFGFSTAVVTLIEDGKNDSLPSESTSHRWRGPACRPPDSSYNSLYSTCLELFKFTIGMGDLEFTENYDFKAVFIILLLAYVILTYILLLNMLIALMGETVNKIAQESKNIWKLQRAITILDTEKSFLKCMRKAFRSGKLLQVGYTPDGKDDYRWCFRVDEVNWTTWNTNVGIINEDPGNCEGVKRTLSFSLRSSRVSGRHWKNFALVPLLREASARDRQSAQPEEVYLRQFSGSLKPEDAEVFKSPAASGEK
Assay type: cell-based
Protocol: Human embryonic kidney (HEK293) cells were transfected with the pBK-CMV expression construct encoding the full length human capsaicin receptor using standard methods. The transfected cells were selected for two weeks in media containing G418 (400 μg/ml) to obtain a pool of stably transfected cells. Independent clones were isolated from this pool by limiting dilution to obtain clonal stable cell lines for use in subsequent experiments.
Cells transfected with expression plasmids (as described in Example 4) and thereby expressing human capsaicin receptor are seeded and grown to 70-90% confluency in FALCON black-walled, clear-bottomed 96-well plates (#3904, BECTON-DICKINSON, Franklin Lakes, N.J.). The culture medium is emptied from the 96 well plates and FLUO-3 AM calcium sensitive dye (Molecular Probes, Eugene, Oreg.) is added to each well (dye solution: 1 mg FLUO-3 AM, 440 μL DMSO and 440 μl 20% pluronic acid in DMSO, diluted 1:250 in Krebs-Ringer HEPES (KRH) buffer (25 mM HEPES, 5 mM KCl, 0.96 mM NaH2PO4, 1 mM MgSO4, 2 mM CaCl2, 5 mM glucose, 1 mM probenecid, pH 7.4), 50 μl diluted solution per well). Plates are covered with aluminum foil and incubated at 37° C. for 1-2 hours in an environment containing 5% CO2. After the incubation, the dye is emptied from the plates, and the cells are washed once with KRH buffer, and, resuspended in KRH buffer.
Agonist (e.g., olvanil, capsaicin, or RTX)-induced calcium mobilization is monitored using either FLUOROSKAN ASCENT (Labsystems, Franklin, Mass.) or FLIPR (fluorometric imaging plate reader system, Molecular Devices, Sunnyvale, Calif.) instruments. Varying concentrations of the antagonists ruthenium red or capsazepine (RBI; Natick, Mass.) are added to cells concurrently with agonist (e.g., 25-50 nM capsaicin). For agonist-induced calcium responses, data obtained between 30 and 60 seconds after agonist application are used to generate the IC50 values. KALEIDAGRAPH software (Synergy Software, Reading, Pa.) is used to fit the data to the equation: y=a*(1/(1+(b/x)^c)) to determine the IC50 for the response. In this equation, y is the maximum fluorescence signal, x is the concentration of the agonist or antagonist, a is the Emax, b corresponds to the IC50 value and c is the Hill coefficient.
To measure the ability of a test compound to antagonize (inhibit) the response of cells expressing capsaicin receptors to capsaicin or other vanilloid agonist, the IC50 of capsaicin is first determined. An additional 20 μl of KRH buffer and 1 μl DMSO is added to each well of cells, prepared as described above. 100 μl capsaicin in KRH buffer is automatically transferred by the FLIPR instrument to each well. An 8-point concentration response curve, with final capsaicin concentrations of 1 nM to 3 μM, is used to determine capsaicin IC50.
Test compounds are dissolved in DMSO, diluted in 20 μl KRH buffer so that the final concentration of test compounds in the assay well is between 1 μM and 5 μM, and added to cells prepared as described above. The 96 well plates containing prepared cells and test compounds are incubated in the dark, at room temperature for 0.5 to 6 hours. It is important that the incubation not continue beyond 6 hours. Just prior to determining the fluorescence response, 100 μl capsaicin in KRH buffer at twice the IC50 concentration determined from the concentration response curve is automatically added by the FLIPR instrument to each well of the 96 well plate for a final sample volume of 200 μl and a final capsaicin concentration equal to the IC50. The final concentration of test compounds in the assay wells is between 1 μM and 5 μM. […] Antagonists of the capsaicin receptor decrease this response by at least about 20%, preferably by at least about 50%, and most preferably by at least 80% as compared to matched control. The concentration of antagonist required to provide a 50% decrease is the IC50 for the antagonist, and is preferably below 1 micromolar, 100 nanomolar, 10 nanomolar or 1 nanomolar. […]

Row | Compound | IC50 [nM]
1 | CC(C)COCc1cc(Nc2ccc(S(=O)(=O)C(C)C)cc2)c2ccc(-c3ncccc3C(F)(F)F)nc2n1 [Compound 72, 2-(isobutoxymethyl)-N-[4-(isopropylsulfonyl)phenyl]-7-[3-(trifluoromethyl)pyridin-2-yl]-1,8-naphthyridin-4-amine] | ≤ 1000
2 | Cc1ccc(Nc2cc(COCC(C)C)nc3nc(-c4ncccc4C(F)(F)F)ccc23)nc1 [Compound 83, 2-(isobutoxymethyl)-N-(5-methylpyridin-2-yl)-7-[3-(trifluoromethyl)pyridin-2-yl]-1,8-naphthyridin-4-amine] | ≤ 1000
3 | CC(C)COCc1cc(Nc2ccc(Br)cn2)c2ccc(-c3ncccc3C(F)(F)F)nc2n1 [Compound 61, N-(5-bromopyridin-2-yl)-2-(isobutoxymethyl)-7-[3-(trifluoromethyl)pyridin-2-yl]-1,8-naphthyridin-4-amine] | ≤ 1000
4 | COc1cc(Nc2ccc(C(C)(C)C)cc2)c2ccc(-c3ncccc3C(F)(F)F)nc2n1 [Compound 47, N-(4-tert-butylphenyl)-2-methoxy-7-[3-(trifluoromethyl)pyridin-2-yl]-1,8-naphthyridin-4-amine] | ≤ 1000
5 | OCc1cc(Nc2ccc(C(F)(F)F)cc2)c2ccc(-c3ncccc3C(F)(F)F)nc2n1 [Compound 5, {4-{[4-(trifluoromethyl)phenyl]amino}-7-[3-(trifluoromethyl)pyridin-2-yl]-1,8-naphthyridin-2-yl}methanol] | ≤ 1000
6 | CC(C)COCc1cc(Nc2ccc(C(F)(F)F)cc2)c2ccc(-c3ncccc3Cl)nc2n1 [Compound 52, 7-(3-chloropyridin-2-yl)-2-(isobutoxymethyl)-N-[4-(trifluoromethyl)phenyl]-1,8-naphthyridin-4-amine] | ≤ 1000
7 | COCc1cc(Nc2ccc(C(F)(F)F)cc2)c2ccc(-c3ncccc3C(F)(F)F)nc2n1 [Compound 2] | ≤ 1000
8 | COCc1nc2nc(-c3ncccc3C(F)(F)F)ccc2c(Nc2ccc(C(F)(F)F)cc2)c1C(=O)O [Compound 6, 2-(methoxymethyl)-4-{[4-(trifluoromethyl)phenyl]amino}-7-[3-(trifluoromethyl)pyridin-2-yl]-1,8-naphthyridine-3-carboxylic acid] | ≤ 1000
9 | OCc1cc(Nc2ccc(C(F)(F)F)cn2)c2ccc(-c3ncccc3C(F)(F)F)nc2n1 [Compound 88, (7-[3-(trifluoromethyl)pyridin-2-yl]-4-{[5-(trifluoromethyl)pyridin-2-yl]amino}-1,8-naphthyridin-2-yl)methanol] | ≤ 1000
10 | COCc1cc(Nc2ccc(C(F)(F)F)cc2)c2ccc(-c3ncccc3Cl)nc2n1 [Compound 51, 7-(3-chloropyridin-2-yl)-2-(methoxymethyl)-N-[4-(trifluoromethyl)phenyl]-1,8-naphthyridin-4-amine] | ≤ 1000

Second part, the molecule after the results:

Row | IC50 [nM] | Compound
11 | ≤ 1000 | CCc1cc(Nc2ccc(C(C)=O)cn2)c2ccc(-c3ncccc3C(F)(F)F)nc2n1 [Compound 111, 1-[6-({2-ethyl-7-[3-(trifluoromethyl)pyridin-2-yl]-1,8-naphthyridin-4-yl}amino)pyridin-3-yl]ethanone]
12 | ≤ 1000 | FC(F)(F)c1ccc(Nc2cc(CN3CCC3)nc3nc(-c4ncccc4C(F)(F)F)ccc23)cc1 [Compound 55, 2-(azetidin-1-ylmethyl)-N-[4-(trifluoromethyl)phenyl]-7-[3-(trifluoromethyl)pyridin-2-yl]-1,8-naphthyridin-4-amine]
13 | ≤ 1000 | CCN(CCCO)Cc1cc(Nc2ccc(C(F)(F)F)cc2)c2ccc(-c3ncccc3C(F)(F)F)nc2n1 [Compound 77, 3-[ethyl({4-{[4-(trifluoromethyl)phenyl]amino}-7-[3-(trifluoromethyl)pyridin-2-yl]-1,8-naphthyridin-2-yl}methyl)amino]propan-1-ol]
14 | ≤ 1000 | COCc1cc(Nc2ccc(S(=O)(=O)C(F)(F)F)cc2)c2ccc(-c3ncccc3C(F)(F)F)nc2n1 [Compound 15, 2-(methoxymethyl)-7-[3-(trifluoromethyl)pyridin-2-yl]-N-{4-[(trifluoromethyl)sulfonyl]phenyl}-1,8-naphthyridin-4-amine]
15 | ≤ 1000 | COCc1cc(Nc2ccc(Cl)c(F)c2)c2ccc(-c3ncccc3C(F)(F)F)nc2n1 [Compound 10, N-(4-chloro-3-fluorophenyl)-2-(methoxymethyl)-7-[3-(trifluoromethyl)pyridin-2-yl]-1,8-naphthyridin-4-amine]
16 | ≤ 1000 | Cc1cccnc1-c1ccc2c(Nc3cnc(C(F)(F)F)cn3)ccnc2n1 [Compound 144, 7-(3-methylpyridin-2-yl)-N-[5-(trifluoromethyl)pyrazin-2-yl]-1,8-naphthyridin-4-amine]
17 | ≤ 1000 | FC(F)(F)c1cnc(Nc2ccnc3nc(-c4ncccc4C(F)(F)F)ccc23)nc1 [Compound 132, 7-[3-(trifluoromethyl)pyridin-2-yl]-N-[5-(trifluoromethyl)pyrimidin-2-yl]-1,8-naphthyridin-4-amine]
18 | ≤ 1000 | CN(C)Cc1cc(Nc2ccc(C(F)(F)F)cn2)c2ccc(-c3ncccc3C(F)(F)F)nc2n1 [Compound 89, 2-[(dimethylamino)methyl]-7-[3-(trifluoromethyl)pyridin-2-yl]-N-[5-(trifluoromethyl)pyridin-2-yl]-1,8-naphthyridin-4-amine]
19 | ≤ 1000 | COC(C)c1cc(Nc2ccc(C(F)(F)F)cn2)c2ccc(-c3ncccc3C(F)(F)F)nc2n1 (stereo not shown) [Compound 119, 2-(1-methoxyethyl)-7-[3-(trifluoromethyl)pyridin-2-yl]-N-[5-(trifluoromethyl)pyridin-2-yl]-1,8-naphthyridin-4-amine]
20 | ≤ 1000 | CC(C)CN(Cc1cc(Nc2ccc(C(F)(F)F)cc2)c2ccc(-c3ncccc3C(F)(F)F)nc2n1)S(C)(=O)=O [Compound 80, N-isobutyl-N-({4-{[4-(trifluoromethyl)phenyl]amino}-7-[3-(trifluoromethyl)pyridin-2-yl]-1,8-naphthyridin-2-yl}methyl)methanesulfonamide]
21 | ≤ 1000 | COCc1nc2nc(-c3ncccc3C(F)(F)F)ccc2c(Nc2ccc(C(F)(F)F)cc2)c1C(=O)OC [Compound 4, methyl 2-(methoxymethyl)-4-{[4-(trifluoromethyl)phenyl]amino}-7-[3-(trifluoromethyl)pyridin-2-yl]-1,8-naphthyridine-3-carboxylate]
22 | ≤ 1000 | CCCc1cc(Nc2ccc(Cl)cn2)c2ccc(-c3ncccc3C(F)(F)F)nc2n1 [Compound 122, N-(5-chloropyridin-2-yl)-2-propyl-7-[3-(trifluoromethyl)pyridin-2-yl]-1,8-naphthyridin-4-amine]
23 | ≤ 1000 | C[C@@H](OCc1cc(Nc2ccc(C(F)(F)F)cc2)c2ccc(-c3ncccc3C(F)(F)F)nc2n1)C(C)(C)O [Compound 86, 2-methyl-3-({4-{[4-(trifluoromethyl)phenyl]amino}-7-[3-(trifluoromethyl)pyridin-2-yl]-1,8-naphthyridin-2-yl}methoxy)butan-2-ol]
24 | ≤ 1000 | Oc1cc(Nc2ccc(C(F)(F)F)cc2)c2ccc(-c3ncccc3C(F)(F)F)nc2n1 [Compound 31, 4-{[4-(trifluoromethyl)phenyl]amino}-7-[3-(trifluoromethyl)pyridin-2-yl]-1,8-naphthyridin-2-ol]
25 | ≤ 1000 | N#Cc1ccc(Nc2cc(C3CCC3)nc3nc(-c4ncccc4C(F)(F)F)ccc23)nc1 [Compound 100, 6-({2-cyclobutyl-7-[3-(trifluoromethyl)pyridin-2-yl]-1,8-naphthyridin-4-yl}amino)nicotinonitrile]
